According to patent US20230339882A1, “SHP2 INHIBITOR AND COMPOSITION AND APPLICATION THEREOF” (Betta Pharmaceuticals Co., Ltd., priority 2020, published 2023):

Key:
SHP2 = SHP2 (Homo sapiens (Human), UniProt Q06124); assay: SHP2 allosteric inhibitory enzyme activity assay (DiFMUP fluorescence); format: biochemical; conditions: read-out: SHP2 enzymatic activity IC50
Outline: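 Human SHP2 (0.2 ng) preincubated 1 h at room temperature with 25 µM activating peptide IRS1_pY1172(dPEG8)pY1222 and compound (10-point series from 10 µM) in HEPES/NaCl/KCl/BRIJ-35/EDTA/DTT buffer. DiFMUP then added for 1 h; fluorescence at ex 340/em 450 nm, normalized to no-enzyme and no-inhibitor controls, IC50 from variable-slope fit.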

leukemia cells MV-4-11 = assay: Cell proliferation assay, CELL TITER-GLO (CTG) luminescence, MV-4-11; format: cell-based
Outline: (§1)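 NCI-H358 (2000 cells/well, ultra-low-attachment plates) and MV-4-11 cells were dosed 24 h after seeding at 1000 nM down to 0.1524 nM (3-fold steps). Viable-cell ATP was read by CellTiter-Glo luminescence after 96 h for NCI-H358 and 120 h for MV-4-11. IC50 came from a variable-slope fit of inhibition versus the 0 nM control.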

[1] = test system: lung cancer cells NCI-H358; assay: Cell proliferation assay, CELL TITER-GLO (CTG) luminescence, NCI-H358; format: cell-based; conditions: cultured for 96 hrs
Outline: as §1

[2] = In vitro metabolic stability in liver microsomes, human; format: in vitro ADME; conditions: for microsomal CLint at 2 µM: pH 7.3, read-out: CLint (µL/min/mg protein) human
Procedure: (§2) Example D: In Vitro Metabolic Stability of Human and Rat Liver Microsomes Test Buffer Preparation
(§3) Dissolve 1900 mg of MgCl2 in 400 mL of ultrapure water.
(§4) Dissolve 17.42 g K2HPO4 and 13.65 g KH2PO4 into 1000 mL of ultrapure water, respectively. Mix a certain proportion of K2HPO4 and KH2PO4 to adjust the pH to 7.30 ± 0.10.
(§5) Prepare a solution of 10 ng/mL labetalol and 10 ng/mL glyburide in acetonitrile and store at 4° C.
(§6) Prepare 10 mM verapamil (positive control) and test article stock solutions in DMSO. Then, with MeOH/ACN/H2O solution (1:1:2 by volume), diluted to 50 µM and 200 µM working solutions, respectively.
(§7) experiment procedure: • 1) Add 40 µL MgCl2 and 306 µL PBS to 96 wells (set blank control group, positive control group, test compound sample group, and negative control group at the same time) • 2) Add 4 µL of compound working solution to each well (4 µL of PBS buffer for blank group) (Note: the final concentration of DMSO volume in the system is ≤ 0.5%) • 3) Add 10 µL of liver microsomes (concentration: 20 mg/mL) to each well, mix well, and pre-incubate at 37° C. for 10 minutes. • 4) Add 40 µL of 10 mM NADPH working solution to each well to start the reaction (add equal volume of PBS buffer for blank control group and negative control group respectively), the total reaction volume is 400 µL. • 5) Take out 50 µL samples from the above reaction solution at 0, 5, 15, and 45 minutes, and add 400 µL of reaction stop solution to stop the reaction • 6) Shake the sample after the termination of the reaction on a shaker for 5 minutes. • 7) Centrifuge the sample at 3200 rcf for 10 minutes. After the centrifugation is complete, transfer 50 µL of the supernatant to 200 µL of H2O for dilution for LC-MS/MS analysis.
(§8) Calculations of t½ and CLint are performed using the first-order kinetic equations: […]
(§9) where k represents the elimination constant, calculated from a log-linear plot of percentage remaining versus time. t½ represents half-life. Cprotein is the concentration of liver microsomes.

[3] = In vitro metabolic stability in liver microsomes, rat; format: in vitro ADME; conditions: for microsomal CLint at 2 µM: pH 7.3, read-out: CLint (µL/min/mg protein) rat
Procedure: as §2, §3, §4, §5, §6, §7, §8, §9

[4] = In vitro metabolic stability in liver microsomes, mouse; format: in vitro ADME; conditions: for microsomal CLint at 2 µM: pH 7.3, read-out: CLint (µL/min/mg protein) mouse
[5] = In vitro metabolic stability in liver microsomes, monkey; format: in vitro ADME; conditions: for microsomal CLint at 2 µM: pH 7.3, read-out: CLint (µL/min/mg protein) monkey
[6] = In vitro metabolic stability in liver microsomes, dog; format: in vitro ADME; conditions: for microsomal CLint at 2 µM: pH 7.3
[7] = Homo sapiens, MV4-11, cultured for 120 hrs
[8] = Homo sapiens, NCI-H358, ultra-low adsorption plate

Row | IC50 (SHP2) [nM] | IC50 (leukemia cells MV-4-11; [7]) [nM] | IC50 [1, 8] [nM] | microsomal CLint at 2 µM [2] [µL/min/mg] | microsomal CLint at 2 µM [3] [µL/min/mg] | microsomal CLint at 2 µM [4] [µL/min/mg] | microsomal CLint at 2 µM [5] [µL/min/mg] | microsomal CLint at 2 µM ([6]; dog, microsomes) [µL/min/mg] | CLint (µL/min/mg protein) dog ([6]; dog, microsomes) [µL/min/mg protein] | Structure (SMILES) | IC50 (leukemia cells MV-4-11; cultured for 120 hrs) [nM] | IC50 ([1]; ultra-low adsorption plate) [nM] | CLint (µL/min/mg protein) human [2] [µL/min/mg protein] | CLint (µL/min/mg protein) rat [3] [µL/min/mg protein] | CLint (µL/min/mg protein) mouse [4] [µL/min/mg protein] | CLint (µL/min/mg protein) monkey [5] [µL/min/mg protein] | CLint (µL/min/mg protein) dog ([6]; dog liver microsomes) [µL/min/mg protein]
1 | 1.6 | 1.8 | 5.2 | 2.2 | 9 | 9.8 | 6.3 | 1.2 |  | Nc1cc(OCC#Cc2cnc(N3CCC4(CC3)Cc3ccccc3[C@H]4N)c(CO)n2)ccn1 [Compound A26, (S)-(3-(1-amino-1,3-dihydrospiro [indene-2,4′-piperidine]-1′-yl)-6-(3-((2-Aminopyridin-4-yl)oxy)prop-1-yn-1-yl)pyrazin-2-yl) methanol] |  |  |  |  |  |  | 
2 | 1.9 | 1.4 | 1.5 | 4 | 7.5 | 17.7 | 15.9 | 4.8 |  | NC(=O)c1cccc(OCC#Cc2cnc(N3CCC4(CC3)Cc3ccccc3[C@H]4N)c(CO)n2)c1 [Compound A27, (S)-3-((3-(5-(1-amino-1,3-dihydrospiro[indene-2,4′-piperidine]-1′-yl)-6-(hydroxymethyl)pyrazin-2-yl)prop-2-yn-1-yl)oxy)benzamide] |  |  |  |  |  |  | 
3 | 1.7 |  |  |  |  |  |  |  | 5.2 | NC(=O)c1ccc(OCC#Cc2cnc(N3CCC4(CC3)Cc3ccccc3[C@H]4N)c(CO)n2)cc1F [Compound A50, (S)-4-((3-(5-(1-amino-1,3-dihydrospiro[indene-2,4′-piperidin]-1′-yl)-6-(hydroxymethy 1)pyrazin-2-yl)prop-2-yn-1-yl)oxy)-2-fluorobenzamide] | 2.2 | 3.3 | 7.4 | 11.4 | 3.1 | 5.9 | 
4 | 2.4 |  |  |  |  |  |  |  | 22.2 | N[C@@H]1c2ccccc2CC12CCN(c1ncc(C#CCOc3ccc4c(c3)CNC4=O)nc1CO)CC2 [Compound A51, (S)-5-((3-(5-(1-amino-1,3-dihydrospiro[indene-2,4′-piperidin]-1′-yl)-6-(hydroxymethy 1)pyrazin-2-yl)prop-2-yn-1-yl)oxy)isoindolin-1-one] | 1 | 0.8 | 9.9 | 12.5 | 16.7 | 26.2 | 
5 | 0.7 | 1.6 | 2.2 | 12.1 | 12.8 | 10.4 | 13.7 | 12.8 |  | NC(=O)c1ccc(OCC#Cc2cnc(N3CCC4(CC3)Cc3ccccc3[C@H]4N)c(CO)n2)cc1Cl [Compound A54, (S)-4-((3-(5-(1-amino-1,3-dihydrospiro[indene-2,4′-piperidin]-1′-yl)-6-(hydroxymethyl)pyrazin-2-yl)prop-2-yn-1-yl)oxy)-2-chlorobenzamide] |  |  |  |  |  |  | 
6 | 2.7 | 9.6 | 26 | 14.7 | 24.7 | 14.3 | 20 | 20.7 |  | CN(CC#Cc1cnc(N2CCC3(CC2)Cc2ccccc2[C@H]3N)c(CO)n1)c1ccc(C(N)=O)cc1 [Compound A55, (S)-4-((3-(5-(1-amino-1,3-dihydrospiro[indene-2,4′-piperidin]-1′-yl)-6-(hydroxymethyl)pyrazin-2-yl)prop-2-yn-1-yl)(methyl)amino)benzamide] |  |  |  |  |  |  | 
7 | 2.8 | 10.4 |  | 2.7 | 14 | 9 | 1 | 3.1 |  | N[C@@H]1c2ccccc2CC12CCN(c1ncc(C#CCOc3ccc(C(O)C(F)(F)F)cc3)nc1CO)CC2 (stereo partly drawn) [Compound A80, 1-(4-((3-(5-((S)-1-amino-1,3-dihydrospiro[indene-2,4′-piperidin]-1′-yl)-6-(hydroxymethyl)pyrazin-2-yl)prop-2-yn-1-yl)oxy)phenyl)-2,2,2-trifluoroethane-1-ol] |  |  |  |  |  |  | 
8 |  | 9 | 40 | 8.6 | 5.3 | 10.5 | 4.5 | 3.9 |  | NC(=O)Cn1cc(OCC#Cc2cnc(N3CCC4(CC3)Cc3ccccc3[C@H]4N)c(CO)n2)cn1 [Compound A82, (S)-2-(4-((3-(5-(1-amino-1,3-dihydrospiro[indene-2,4′-piperidin]-1′-yl)-6-(hydroxymethyl)pyrazin-2-yl)prop-2-yn-1-yl)oxy)-1H-pyrazol-1-yl)acetamide] |  |  |  |  |  |  | 

Row | Structure (SMILES) | IC50 (SHP2) [nM] | IC50 (leukemia cells MV-4-11; [7]) [nM] | IC50 [1, 8] [nM] | microsomal CLint at 2 µM [2] [µL/min/mg] | microsomal CLint at 2 µM [3] [µL/min/mg] | microsomal CLint at 2 µM [4] [µL/min/mg] | microsomal CLint at 2 µM [5] [µL/min/mg] | microsomal CLint at 2 µM ([6]; dog, microsomes) [µL/min/mg] | CLint (µL/min/mg protein) dog ([6]; dog, microsomes) [µL/min/mg protein] | IC50 (leukemia cells MV-4-11; cultured for 120 hrs) [nM] | IC50 ([1]; ultra-low adsorption plate) [nM] | CLint (µL/min/mg protein) human [2] [µL/min/mg protein] | CLint (µL/min/mg protein) rat [3] [µL/min/mg protein] | CLint (µL/min/mg protein) mouse [4] [µL/min/mg protein] | CLint (µL/min/mg protein) monkey [5] [µL/min/mg protein] | CLint (µL/min/mg protein) dog ([6]; dog liver microsomes) [µL/min/mg protein]
9 | N[C@@H]1c2ccccc2CC12CCN(c1ncc(C#CCOc3cccc(C(F)(F)F)c3)nc1CO)CC2 [Compound A13] | 5.8 |  |  |  |  |  |  |  |  | 18 | 28 | 6.3 | 2.4 | 6.6 | 2.6 | 0.9
10 | NC(=O)c1ccc(OCC#Cc2cnc(N3CCC4(CC3)Cc3ccccc3[C@H]4N)c(CO)n2)cc1 [Compound A17, (S)-4-((3-(5-(1-amino-1,3-dihydrospiro[indene-2,4′-piperidine]-1′-yl)-6-(hydroxymethyl)pyrazin-2-yl)prop-2-yn-1-yl)oxy) benzamide] | 2.4 |  |  |  |  |  |  |  |  | 1 | 1.5 | 0.4 | 15.9 | 12.0 | 5.0 | 10.6
11 | N[C@@H]1c2ccccc2CC12CCN(c1ncc(C#CCOc3ccc4c(c3)NC(=O)CC4)nc1CO)CC2 [Compound A22] | 4.6 |  |  |  |  |  |  |  |  | 2.9 | 2.3 | 1.6 | 20.7 | 13.2 | 21.0 | 13.6
12 | N[C@@H]1c2ccccc2CC12CCN(c1ncc(C#CCNC(=O)c3ccccc3)nc1CO)CC2 [Compound A45] | 4.7 |  |  |  |  |  |  |  |  | 20 | 40 | 5.2 | 7.9 | 6.3 | 3.2 | 9.6
13 | N[C@@H]1c2ccccc2CC12CCN(c1ncc(C#CCNc3ncco3)nc1CO)CC2 [Compound A60] | 1.6 |  |  |  |  |  |  |  |  | 13 | 41 | 9.9 | 10.4 | 15.1 | 16.9 | 10.8
